Test results from paper PMC10361207, “Cannabinoid and Opioid Receptor Affinity and Modulation of Cancer-Related Signaling Pathways of Machaeriols and Machaeridiols from Machaerium Pers” (Molecules, 2023).
In brackets after ≈: the same amount, converted by molar mass. Like-named read-outs stand apart in the source and are kept apart here.

What was measured:
Stat3 = experiment: Luciferase reporter assay, Stat3, HeLa; assay type: cell-based, human
Method: (§1) Hela cells (or T98G cells) from ATCC were plated in white opaque 384-well plates at a density of 4300 cells/well in 30 µL of growth medium (DMEM with 10% FBS and 1% Pen/Strep). The next day, the medium was aspirated and replaced with DMEM containing 1% FBS. The cells were transfected with respective plasmids using X-tremeGENE HP DNA transfection reagent (Roche). After 24 h of transfection, the test agents were added to the transfected cells, followed 30 min later by an inducing agent: interleukin 6 (IL-6) for Stat3, TGF-β for Smad, m-wnt3a for Wnt and PMA for AP-1, NF-κB, E2F, Myc, ETS, Notch and Hedgehog. No inducer was added for FoXO and pTK. After 4 h or 6 h of induction, the cells were lysed via the addition of the One-Glo luciferase assay system (Promega; Madison, WI). The light output was detected in a GloMax®-Multi+ Detection System with Instinct® Software (Promega E 8051). This luciferase assay determines if the test agent is able to inhibit the activation of cancer-related signaling pathways. In the case of FoxO, the enhanced luciferase activity via the test agent was assessed.

Wnt = experiment: Luciferase reporter assay, Wnt, HeLa; assay type: cell-based; conditions: Homo sapiens; for IC50: HeLa cells, inducer m-wnt3a, dash: not inhibited by more than 40% at 50 µmol/L
Method: as §1

NF-κB = experiment: Luciferase reporter assay, NF-κB, HeLa; assay type: cell-based; conditions: Homo sapiens; for IC50: HeLa cells, inducer PMA, dash: not inhibited by more than 40% at 50 µmol/L
Method: as §1

[1] = Cytotoxicity, Neutral Red, SK-MEL; assay type: cell-based; conditions: human, SK-MEL malignant melanoma cells, Na = not active up to 50 µg/mL
Method: (§2) In vitro cytotoxic activity was determined against five human cancer cell lines—malignant melanoma (SK-MEL), epidermal carcinoma oral (KB), ductal carcinoma breast (BT-549), ovary carcinoma (SKOV-3) and cervical (HeLa) cancer cells—and two non-cancerous kidney cell lines (LLC-PK1 and Vero). All cell lines were obtained from the American Type Culture Collection (ATCC, Rockville, MD, USA). Each assay was performed in 96-well tissue culture-treated microplates. The cells were seeded at a density of 25,000 cells/well and incubated for 24 h. Samples at different concentrations were added, and the cells were incubated again for 48 h. At the end of the incubation, the cell viability was determined using Neutral Red dye according to a modification of the procedure used by Borenfreund et al.. IC50 values were determined from dose–response curves of the percent growth inhibition against test concentrations. Doxorubicin was used as a positive control, while DMSO was used as the negative (vehicle) control.

Notch = experiment: Luciferase reporter assay, Notch, HeLa; assay type: cell-based; conditions: Homo sapiens; for IC50: HeLa cells, inducer PMA, dash: not inhibited by more than 40% at 50 µmol/L
Method: as §1

[2] = tested on: minimal thymidine kinase promoter (pTK); experiment: Luciferase control vector pTK, HeLa; assay type: cell-based, human; conditions: HeLa cells; up to 50 µM; no inducer
Method: as §1

E2F = experiment: Luciferase reporter assay, E2F, HeLa; assay type: cell-based, human; conditions: Homo sapiens, HeLa; for IC50: read-out: IC50, E2F (PMA)
Method: as §1

CB2 receptor = target: T1, CB2 receptor (Homo sapiens, UniProt P34972); experiment: Competitive radioligand binding assay, CB2; conditions: for Percent displacement, CB2: 10 μM, [3H]-CP55,940
T1 construct: expressed in transfected cells; host or cells: HEK293 (ATCC), stably transfected; membranes
Method: HEK293 cells stably transfected with δ, κ and μ opioid subtypes were a generous gift from Roth Laboratories (University of North Carolina at Chapel Hill, N.C., USA). CB and opioid cells were maintained as previously described.
Membranes were purified by first washing the cells with cold PBS and scraping the cells into cold 50 mM Tris-HCl, pH 7.4 buffer, which was centrifuged at 5200× g for 10 min at 4 °C; next, the supernatant was discarded, and the pellet was washed with more Tris-HCl buffer, homogenized via a Sonic Dismembrator (Fisher Scientific, Pittsburgh, PA, USA) and then centrifuged at 24,000× g for 40 min at 4 °C. Finally, the pellet was re-suspended in cold 50 mM Tris-HCl buffer, aliquoted into 2 mL vials and stored at −80 °C. The total membrane protein concentration was measured using a Pierce BCA Protein Assay Kit (Thermo Scientific, Rockford, IL, USA) as per the manufacturer’s protocol.
Cannabinoid and opioid competitive radioligand binding assays were performed as previously described. Saturation experiments were performed for all the receptors to determine the receptor concentration and radioligand dissociation constant (Kd) for the membrane. Percent displacements were evaluated for all the cannabinoid and opioid subtypes with a triplicate of a fixed concentration (10 µg/mL for extracts and fractions and 10 μM for purified compounds). […] Control/test compounds were dissolved in DMSO at 10 μg/mL for extracts and fractions and 10 μM for purified compounds. […] The percent displacement was calculated to represent the ability of the samples to displace the radioligand binding for a given cannabinoid or opioid receptor subtype.
The percent displacement was calculated as follows: 100−binding of compound−nonspecific binding/specific binding×100
The competitive binding assays were performed using 12 serial dilutions of each compound ranging from 0.002 to 300 μM (control compounds were serially diluted from 10 μM to 0.06 nM). The cannabinoid assays were incubated for 90 min at 37 °C with gentle agitation. The opioid assays were incubated for 60 min at room temperature. Bound radioligands were collected on GF/C (cannabinoid) or GF/B plates (opioid) and washed 10 times with ice-cold 50 mM Tris-HCl (pH 7.4)/0.1% BSA (cannabinoid) or ice-cold 50 mM Tris-HCl (pH 7.4) (opioid). Radiodetection was measured with 50 µL (cannabinoid) or 25 µL (opioid) of MicroScint^TM-20 on a TopCount NXT HTS Microplate Scintillation Counter (PerkinElmer, Waltham, MA, USA). The IC50 and Ki values were calculated via a non-linear curve fit model using GraphPad Prism 5.0 software (GraphPad Software, Inc., San Diego, CA, USA). Each compound was tested in triplicate unless stated otherwise.

[3] = Cytotoxicity, Neutral Red, BT-549; assay type: cell-based; conditions: human, BT-549 breast ductal carcinoma cells, Na = not active up to 50 µg/mL
Method: as §2

[4] = Cytotoxicity, Neutral Red, SK-OV-3; assay type: cell-based; conditions: human, SK-OV-3 ovary carcinoma cells, Na = not active up to 50 µg/mL
Method: as §2

[5] = Homo sapiens, HeLa cells, inducer IL6, dash: not inhibited by more than 40% at 50 µmol/L
[6] = read-out: Additive effect (in % inhibition): percentage of luciferase induction, E2f (PMA)

T1 sequence (P34972 whole entry): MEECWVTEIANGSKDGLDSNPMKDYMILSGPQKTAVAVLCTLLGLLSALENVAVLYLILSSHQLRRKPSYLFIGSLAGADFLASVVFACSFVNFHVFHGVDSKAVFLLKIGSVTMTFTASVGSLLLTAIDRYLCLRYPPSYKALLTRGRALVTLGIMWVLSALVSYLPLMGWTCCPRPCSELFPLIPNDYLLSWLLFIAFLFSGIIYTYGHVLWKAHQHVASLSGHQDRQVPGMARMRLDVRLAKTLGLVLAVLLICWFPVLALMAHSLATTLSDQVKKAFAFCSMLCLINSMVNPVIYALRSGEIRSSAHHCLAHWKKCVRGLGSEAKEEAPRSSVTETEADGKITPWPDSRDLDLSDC

| SMILES | IC50 (Stat3; [5]) | IC50 (Wnt) | IC50 (NF-κB) | IC50 at 48 h [1] | IC50 (Notch) | Inhibition of luciferase expression driven by pTK [2] | IC50 (E2F) | Percent displacement, CB2 (CB2 receptor) | IC50 at 48 h [3] | IC50 at 48 h [4] | other results |
| --- | --- | --- | --- | --- | --- | --- | --- | --- | --- | --- | --- |
| C[C@H]1CC[C@H]2[C@H](C1)c1c(O)cc(/C=C/c3ccccc3O)cc1OC2(C)C [compound 3, machaeriol C] | 38 µM | 22 µM | 11 µM | 25 µg/mL (≈ 68.6 µM) | > 50 µM | no inhibition | 14 µM | 55.5% | > 50 µg/mL | > 50 µg/mL | IC50, Stat3 (IL6) (Stat3; HeLa cells, inducer IL6, dash: not inhibited by more than 40% at 50 µmol/L): lacked activity; inhibition at 10 µM (Stat3; Homo sapiens, HeLa, 3 alone at 10 µM, compared to pTK as control, read-out: Additive effect (in % inhibition): percentage of luciferase induction, Stat3 (IL-6)): 92%; inhibition at 10 µM (Wnt; HeLa, 3 alone at 10 µM, compared to pTK as control, read-out: Additive effect (in % inhibition): percentage of luciferase induction, Wnt (m-wnt3a)): 81%; inhibition at 10 µM (NF-κB; HeLa, 3 alone at 10 µM, compared to pTK as control, read-out: Additive effect (in % inhibition): percentage of luciferase induction, NF-κB (PMA)): 70%; inhibition at 10 µM (Notch; HeLa, 3 alone at 10 µM, compared to pTK as control, read-out: Additive effect (in % inhibition): percentage of luciferase induction, Notch- (PMA)): 115%; inhibition at 10 µM (E2F; [6]): 50%; Ki (CB2 receptor): > 7.76 µM |
| C=C(C)[C@H]1CC[C@H](C)C[C@@H]1c1c(O)cc(/C=C/c2ccccc2O)cc1O [compound 6, machaeridiol B] | 4.7 µM | 4.2 µM | 0.5 µM | 32 µg/mL (≈ 87.8 µM) | 5.3 µM | no inhibition | 5.7 µM | 56.8% | 36 µg/mL (≈ 98.8 µM) | > 50 µg/mL | inhibition at 2 µM (Stat3; Homo sapiens, HeLa, 6 alone at 2 µM, compared to pTK as control, read-out: Additive effect (in % inhibition): percentage of luciferase induction, Stat3 (IL-6)): 82%; inhibition at 2 µM (Wnt; HeLa, 6 alone at 2 µM, compared to pTK as control, read-out: Additive effect (in % inhibition): percentage of luciferase induction, Wnt (m-wnt3a)): 113%; inhibition at 2 µM (NF-κB; HeLa, 6 alone at 2 µM, compared to pTK as control, read-out: Additive effect (in % inhibition): percentage of luciferase induction, NF-κB (PMA)): 76%; inhibition at 2 µM (Notch; HeLa, 6 alone at 2 µM, compared to pTK as control, read-out: Additive effect (in % inhibition): percentage of luciferase induction, Notch- (PMA)): 103%; inhibition at 2 µM (E2F; [6]): 80%; Ki (CB2 receptor; * tested up to solubility limit, conc. at 33.3 μM and above precipitated, read-out: CB2 Ki ± SEM): > 2.18 µM |
